Laboratory results: patent publication US8951527B2, “Radioprotectants targeting thrombospondin-1 and CD47” (The United States of America, as represented by the …, priority 2008, dated 2015)
Entries after “also recorded” stand apart in the source; their conditions may differ.

How the values were obtained:
Format in all cases: in vivo, mouse
B16 melanoma tumors = experiment: Histology, TUNEL and CD68 staining of irradiated B16 tumors; settings: morpholino 48 hours before 10 Gy, 24 hours post-radiation
Protocol: FIG. 21. Increased fibrotic response, viable immune reaction, and macrophage infiltration is seen in tumors with suppressed CD47 expression. C57BL/6 mice were injected with 1×10^6 B16 mouse melanoma cells into their hind limbs. Treatment consisted of two groups where the hind limbs were treated with either 150 μl of PBS or 150 μl of CD47 morpholino (10 μM) 48 hours prior to radiation (10 Gy). The control group consisted of just tumor without radiation. 24 hours post-radiation the mice were sacrificed, and their hindlimbs were prepared in paraffin embedded tissue sections for analysis. The top panels represent hind limbs and tumors in each group stained by standard H&E protocol (FIG. 21A). […] Positive (apoptotic) cells are indicated by brown nuclear staining (FIG. 21B). […] Dark staining within the tumor indicates macrophage infiltration. Images were acquired using either a 4× or 10× objective.
Immunohistochemical Evaluation: Staining for the macrophage marker CD68 was done as previously described (Manso et al., Cancer Res 68:7090-7099, 2008) utilizing a rat anti-mouse CD68 antibody (AbD Serotec, Raleigh, N.C.). H&E staining of tissue hind limbs was prepared by American HistoLabs, Gaithersburg, Md.
Tissue Apoptosis: The ApopTag in situ detection kit (Chemicon, Millipore, Mass.) was used as described in Example 1. Additionally, animals were injected with 1×10^6 B16 melanoma cells and treated with either CD47 morpholino or sterile PBS as previously described. Mice were sacrificed 24 hours post irradiation (10 Gy), and hind limbs were embedded in paraffin blocks. Tissue sections incorporating the entire hind limb were examined for apoptosis employing 3′-hydroxy DNA strand breaks enzymatically labeled with digoxygenin nucleotide via TdT. Positive and negative control slides provided with the kit are used in each assay to ensure consistency.

C57BL/6 wild type mice = experiment: Hindlimb irradiation (25 Gy), skin reaction / tissue necrosis grading and histology; settings: for skin reaction / tissue damage of irradiated hindlimb: 10 μM in 750 μl PBS local-regional
Protocol: FIG. 16. CD47 suppression using an antisense morpholino minimizes tissue damage from radiation injury. Age and sex matched C57BL16 wild type mice underwent a one-time treatment of the right hindlimb with either a murine specific CD47 morpholino oligonucleotide (10 μM in 750 μl PBS) or 750 μl of PBS injected local-regionally to the muscle and soft tissues. […] At the end of 8 weeks, there was a considerable amount of alopecia, dry desquamation and early signs of fibrotic contractures within the irradiated hind limbs of mice receiving only PBS. […] The tissue necrosis grading scores for 8 animals are presented as mean±SD (FIG. 16B) and show a similar trend throughout the 8-week observation period.
Skin reaction: Skin reaction following hind limb irradiation was quantified every week following treatment for 8 weeks using a previously described grading system (Flanders et al., Am J Pathol 163:2247-2257, 2003). The grading system consisted of 5 categories: normal, hair loss, erythema, dry desquamation and moist desquamation/ulceration.
Irradiation of mice: Age and sex matched wild type mice underwent local irradiation to the right hindlimb as described in Example 1. Forty-eight hours prior to irradiation, animals received the CD47 morpholino (SEQ ID NO: 4), a control morpholino (SEQ ID NO: 5) (both at 10 μM in […] PBS via intramuscular injection), vehicle, or no treatment to the hind limb. Under 1% isoflurane inhalation anesthesia, the animals were placed in customized Lucite jigs that allow for immobilization and selective irradiation of the right hindlimb. A single radiation dose of 25 Gy was delivered by a Therapax® DXT300 X-ray irradiator (Pantak, Inc., East Haven, Conn.) using 2.0-mm A1 filtration (300 kVp) at a dose rate of 2.53 Gy/min. Care was taken to avoid irradiation of other body parts by using lead shields specifically designed as a part of the jigs. After irradiation, the animals were placed in cages as indicated above and observed weekly. Skin reaction after hind limb irradiation was quantified every week after treatment for 8 weeks using a previously described grading system (Flanders et al., Am J. Pathol 163:2247-2257, 2003). Briefly, tissue necrosis grading system consists of 5 categories: normal, hair loss, erythema, dry desquamation, and moist desquamation/ulceration.
Age and sex matched C57BL16 wild type mice underwent a one-time treatment of the right hindlimb with the CD47 antisense morpholino oligonucleotide (10 μM in 750 μl PBS), a mismatched control morpholino, or vehicle (PBS) injected local-regionally to the muscle and soft tissues.

SCC VII = SCC VII squamous cell carcinoma tumor growth after irradiation in C3H mice; settings: IP morpholino 48 hours before irradiation
Protocol: FIG. 19. CD47 suppression enhances re-growth delay in irradiated syngeneic B16 melanoma and squamous cell carcinoma tumors but increases radioresistance of B16 cells in vitro. C57BL/6 mice were injected with 1×10^6 B16 mouse melanoma cells into their right hindlimbs. Five days later, the mice were randomized into 4 groups (12 mice in each group) where they either received injections of CD47 morpholino (10 μM) in sterile PBS, PBS, or no injection. The two groups receiving injections were then subjected to radiation (10 Gy) to the effected hindlimb 48 hours later. The other two groups served as controls and consisted of tumor alone or tumor subjected to only the morpholino. Tumors were followed post-radiation for 30 days, measuring their volume every 6 days (FIG. 19A). Results are presented as the mean±SD of 12 mice in each treatment group and are representative of 3 independent studies. […] Cell (mitochondrial) viability was measured 48 hours post radiation using the MTT assay.
FIG. 20. […] Tumor growth was assessed as above. […]
In other experiments, C3H mice were injected in the right hindlimb with either 1.5×10^5 SCC VII cells, and tumors were allowed to establish for 1 week. […] The mice were observed and tumor size determined two to three times a week by the same individual until lesion size necessitated animal euthanasia.

Sequence: CGTCACAGGCAGGACCCACTGCCCA (all phosphorodiamidate morpholino (PMO)) [CD47 morpholino, CD47 targeting morpholino oligonucleotide]
- H&E of irradiated tumors (fibrosis, necrosis) (B16 melanoma tumors): greater fibrosis and necrotic response
- apoptotic cells associated with the tumor (TUNEL) (B16 melanoma tumors): minimal numbers of apoptotic cells
- macrophage marker CD68 staining of tumors (B16 melanoma tumors): positive staining in the periphery
- skin reaction / tissue damage of irradiated hindlimb (C57BL/6 wild type mice; 48 hours before 25 Gy, 8 weeks): little to no alopecia, ulceration, or desquamation
- skin reaction / tissue damage of irradiated hindlimb (C57BL/6 wild type mice; 48 hours before 25 Gy, 8 weeks, listed as CD47 targeting morpholino): minimal to no alopecia, ulceration, and desquamation
- H&E of treated hindlimb skeletal muscle (C57BL/6 wild type mice; 25 Gy, results not shown): muscle cell survival and hypertrophy
- hindlimb contracture due to fibrosis (C57BL/6 wild type mice; 48 hours before 25 Gy, 8 weeks): minimal contracture due to fibrosis
- tumor growth delay, intraperitoneal versus local administration (SCC VII): as effective as local delivery; also recorded: equivalent delay in tumor growth
